The values below come from article PMC4686731, “Screening of Pharmacologically Active Small Molecule Compounds Identifies Antifungal Agents Against Candida Biofilms” (Frontiers in Microbiology, 2015).

Like-named read-outs stand apart in the source and are kept apart here.

For series [1], the system named is Candida biofilms. In words: AST, biofilm mode, all Candida strains. The series is classed as cell-based. Particulars: all six strains. The protocol:
(§1) The in vitro susceptibility of well-characterized wild-type C. albicans strain SC5314, which was provided by Prof. N.A.R. Gow (University of Aberdeen, Aberdeen, UK) was tested against 1280 compounds from the Library of Pharmacologically Active Compounds (LOPAC^1280TM, Sigma–Aldrich, USA). The screen was performed with C. albicans SC5314, and hits were further confirmed with the type strains C. dubliniensis MYA 577, C. glabrata ATCC 2001, C. kusei ATCC 6258, C. palapsilosis ATCC 22019, and C. tropicalis ATCC13803.
To investigate the antifungal effects of the hit compounds, ASTs were conducted using broth microdilution assays with high cell densities of the planktonic mode, adhesion phase and biofilm mode against Candida strains (C. albicans, C. dubliniensis, C. glabrata, C. kusei, C. palapsilosis, and C. tropicalis). First, high density cell (1 × 10^7 cells/mL) suspensions were added to the RPMI medium containing each hit compound (10–1000 μM) in 96-well plates and incubated at 37°C for 24 h. Next, the 50% minimum inhibitory concentrations (MICs) of high-density Candida planktonic cultures were determined using the CellTiter-Glo luminescent cell viability kit, as described above. The antifungal effects of the hit compounds were also evaluated in the adhesion phase and the biofilm mode, in the same manner as the planktonic mode. Candida biofilms were produced as described previously ([Jin et al., 2004]). In brief, Candida cells were grown on SDA at 37°C for 18 h. A loopful of the yeast culture was then inoculated into yeast nitrogen base (YNB) (Difco, USA) medium supplemented with 50 mM glucose. After overnight broth culture in a rotary shaker at 75 rpm, the cells were washed twice with 20 mL of PBS (pH 7.2, 0.1 M). The yeast cells were re-suspended in YNB supplemented with 100 mM glucose and adjusted to an optical density of 0.38 (1 × 10^7 cells/mL) at 520 nm. This standardized cell suspension was used immediately to form biofilms in the wells of 96-well polystyrene culture plates (Iwaki, Tokyo, Japan). First, the cells were incubated for 90 min at 37°C in a shaker at 75 rpm to allow yeast adherence to the well surface (adhesion phase), before the medium was aspirated and each well was washed once with PBS to remove non-adherent cells. YNB containing 100 mM glucose was then pipetted into each well and the plate was incubated at 37°C in a shaker at 75 rpm for 24 h. Non-adherent cells were removed by pipetting and the biofilms were washed twice with PBS. Following this biofilm growth phase, microscopic examination of the cultures was performed to exclude contamination. These ASTs were repeated on three different occasions.

In series [2] the test system is C. albicans strain SC5314. In words: High-throughput screening (HTS) with antifungal susceptibility test, CellTiter-Glo ATP read-out. The series is classed as cell-based, Candida albicans. Particulars: for inhibition at 10 µM: Candida albicans, SC5314, 24 h; for fungistatic or fungicidal effect on C. albicans: HTS; for percent inhibition of the metabolic activity (ATP level) of C. albicans: 10 µM. As to the method: as §1
High-Throughput Screening was conducted using ASTs, according to the standard Clinical and Laboratory Standard Institute (CLSI) method ([Watamoto et al., 2009]). Inocula from 24-h yeast cultures on Sabouraud’s dextrose agar (SDA) (Gibco, UK) were adjusted to a turbidity equivalent to a 0.5 McFarland standard at 520 nm using a spectrophotometer. The suspension was diluted further with RPMI 1640 medium (Gibco, UK) to yield an inoculum concentration of 0.5 × 10^3 to 2.5 × 10^3 cells/mL. C. albicans was incubated with small-molecule compounds (10 μM) from LOPAC^1280TM, which total volume was 150 μL, in 96-well plates at 37°C for 24 h to evaluate the antifungal effects. After incubation, the viability of the fungal cells was determined using the CellTiter-Glo luminescent cell viability kit (Promega, USA). The CellTiter-Glo reagent (150 μL) was added to the medium and incubated for 15 min at room temperature with shaking at 900 rpm. The luminescent signals were detected using a luminometer (GloMax Discover System, Promega, USA). The resulting signal intensity corresponds to ATP amounts and thus to the number of viable microbial cells upon drug exposure ([Stylianou et al., 2014]). In all 96-well plates, 100 and 0% growth controls were included as microbes plus dimethyl sulfoxide (0.1%) and microbes plus amphotericin B (100 μM), respectively. All assays were performed at least as two biological replicates in triplicate. The ATP level of C. albicans cells, which corresponded to the cell metabolic activity and viability, was calculated for each compound using the following equation (Figure 1A).
Percentageinhibition=100 × 1-{(experimental-positivecontrolaverage)/(negativecontrolaverage-positivecontrolaverage)}
Wells were scored as hits if the percentage inhibition was >50%. Hit compounds were evaluated further to assess their antifungal effects.

The subject of series [3] is human gingival fibroblast (hGF) cells. In words: Cytotoxicity, WST-1 cell counting assay. The protocol: Primary human gingival fibroblast (hGF) cultures were established from discarded healthy gingival tissues after surgery with the informed consent of the donors ([Nikawa et al., 2006]). In brief, the gingival tissue specimens were treated overnight with 0.025% trypsin and 0.02% EDTA at 4°C. After trypsin neutralization, the lamina propria mucosae were separated from the epithelial layer and minced into pieces in a plastic tissue culture dish, and then maintained in Dulbecco’s modified Eagle medium (Nacalai Tesque, Kyoto, Japan) supplemented with 10% FBS, 100 U/mL penicillin, […] and 250 ng/mL amphotericin B (Nacalai Tesque, Kyoto, Japan). After the fibroblasts had migrated out of the tissue, the tissues were removed and the cells were cultured until they reached confluence. The cells were then seeded onto 96-well tissue culture plates (500 cells per well) and the culture medium was exchanged with fresh growth medium containing the hit compounds (0.98–1000 μM). The cells were cultured continuously and the culture medium containing the hit compounds was renewed every other day. The number of cells was evaluated using the WST-1 cell counting assay (Dojindo Laboratories, Kumamoto, Japan), as described previously ([Hamada et al., 2007]). […] All the experiments were performed using three samples for each condition in triplicate.
To evaluate the safety for clinical use, we tested the cytotoxic effects of the hit compounds using human cell cultures. We used hGF cells because of their ubiquitous nature and their widespread use in cytotoxicity testing ([Egusa et al., 2009]; [LaFleur et al., 2011]). The hGF cells were grown in 96-well plates and exposed to increasing doses (two-fold increments) of each hit compound for 4 days. The hGF metabolic activity was measured every other day and used as an indicator of cell viability.

Setting [4] is: compound 10 μM, 0.5 × 10^3 to 2.5 × 10^3 cells/mL, 37°C, 24 h, read-out: percent inhibition of the metabolic activity (ATP level) of C. albicans.
Setting [5] is: compound 10 μM, 0.5 × 10^3 to 2.5 × 10^3 cells/mL, 37°C, 24 h.
Where [6] appears, read: hGF cells, 4 days exposure, 50% reduction in cell number, WST-1.

In the case of `CC(C)(C)c1ccc(S(=O)(=O)/C=C/C#N)cc1` [Bay11-7085], the “concentration that inhibited the metabolic activity of Candida biofilms” value was “below 500 μM” in series [1] (listed as BAY11-7085) and less than 62.5 µM in series [1] (listed as Bay 11-7085). Also, in series [2] (setting [4]), the inhibition at 10 µM turned out to be 100%. The “fungistatic or fungicidal effect on C. albicans” value (“fungistatic or fungicidal effect” below) in series [2] (compound 10 μM) was “strong fungicidal effects”. In series [2] (setting [5]), the “percent inhibition of the metabolic activity (ATP level) of C. albicans” value (from here on “percent inhibition”) is recorded as greater than 90%. In series [3] (hGF cells), the “cytotoxicity to hGF cells (in words)” value is “cytotoxic to hGF cells at low concentrations”. Further, the Cytotoxic concentration in series [3] (setting [6]) was 7.81 µM.
In the case of `Cc1c2ccncc2c(C)c2c1[nH]c1ccccc12` [Ellipticine], the “concentration that inhibited the metabolic activity of Candida biofilms” value in series [1] is less than 500 µM. Moreover, the inhibition at 10 µM in series [2] (setting [4]) amounted to 100%. In series [2] (compound 10 μM), the “fungistatic or fungicidal effect” value is given as “strong fungicidal effects”. In series [2] (setting [5]), the “percent inhibition” value is given as greater than 90%. Further, in series [3] (hGF cells), the “cytotoxicity to hGF cells (in words)” value is “cytotoxic to hGF cells at low concentrations”. In series [3] (setting [6]), the Cytotoxic concentration was determined as 1.95 µM.
Take `C[n+]1cc2c3c(ccc2c2ccc4cc5c(cc4c21)OCO5)OCO3` [Sanguinarine, Sanguinarine chloride hydrate]: the entries for the “concentration that inhibited the metabolic activity of Candida biofilms” value in series [1] (listed as Sanguinarine chloride hydrate) and in series [1] (listed as sanguinarine chloride hydrate) were less than 31.3 µM and “below 500 μM”, respectively. Further, the inhibition at 10 µM in series [2] (read-out: percent inhibition of the metabolic activity (ATP level) of C. albicans, compound 10 μM, 0.5 × 10^3 to 2.5 × 10^3 cells/mL, 37°C, 24 h) was 100%. Also, the “fungistatic or fungicidal effect” value in series [2] (compound 10 μM) is “strong fungicidal effects”. Also, the “percent inhibition” value in series [2] (setting [5]) is recorded as greater than 90%. Moreover, the “cytotoxicity to hGF cells (in words)” value in series [3] (hGF cells) is given as “cytotoxic to hGF cells at low concentrations”. This compound yielded a Cytotoxic concentration in series [3] (setting [6]) of 0.73 µM.
Turning to `Cc1ccc(S(=O)(=O)/C=C/C#N)cc1` [Bay11-7082], the “concentration that inhibited the metabolic activity of Candida biofilms” value in series [1] (listed as BAY11-7082) was “below 500 μM”; in series [1] (listed as Bay 11-7082), less than 62.5 µM. The inhibition at 10 µM in series [2] (setting [4]) amounted to 100%. Moreover, in series [2] (compound 10 μM), the “fungistatic or fungicidal effect” value was “strong fungicidal effects”. For the same compound, in series [2] (setting [5]), the “percent inhibition” value is recorded as greater than 90%. Besides, in series [3], the “cytotoxicity to hGF cells (in words)” value is “cytotoxic to hGF cells at low concentrations”. The same compound registered a Cytotoxic concentration in series [3] (human, 4 days) of 7.81 µM.
